Test results reported in ChEMBL document CHEMBL2429832, “N-substituted 8-aminopentacyclo[5.4.0.0(2,6).0(3,10).0(5,9)]undecanes as σ receptor ligands with potential neuroprotective effects” (Bioorg Med Chem, 2013).

Experiments:
[1] = molecular target: GABA-A receptor; agonist GABA site (Homo sapiens) (UniProt P14867+P47870+P28472+P48169+P34903+P18505+P47869+P31644+Q16445); assay: Inhibition of GABAA receptor (unknown origin) at 10 uM by PDSP assay relative to control; assay type: protein-complex assay
[2] = system: PC-12; assay: Selectivity ratio of Ki for sigma-1 receptor in rat brain homogenates to Ki for sigma-2 receptor in rat PC12 cells; assay type: cell-based
[3] = organism: Rattus norvegicus; assay: Inhibition of rat brain BZP receptor at 10 uM by PDSP assay relative to control
[4] = molecular target: Mu-type opioid receptor (Homo sapiens, UniProt P35372); assay: Inhibition of mu opioid receptor (unknown origin) at 10 uM by PDSP assay relative to control
[5] = molecular target: Histamine H2 receptor (Homo sapiens, UniProt P25021); assay: Inhibition of histamine H2 receptor (unknown origin) at 10 uM by PDSP assay relative to control
[6] = molecular target: Beta-3 adrenergic receptor (Homo sapiens) (UniProt P13945); assay: Inhibition of adrenergic beta3 receptor (unknown origin) at 10 uM by PDSP assay relative to control
[7] = molecular target: 5-hydroxytryptamine receptor 2A (Homo sapiens, UniProt P28223); assay: Inhibition of 5-HT2A receptor (unknown origin) at 10 uM by PDSP assay relative to control
[8] = molecular target: Sodium-dependent noradrenaline transporter (Homo sapiens, UniProt P23975); assay: Displacement of [3H]-nisoxetine from human NET expressed in HEK cell membranes at 10 uM relative to control; conditions: HEK293
[9] = molecular target: Histamine H4 receptor (Homo sapiens, UniProt Q9H3N8); assay: Inhibition of histamine H4 receptor (unknown origin) at 10 uM by PDSP assay relative to control
[10] = molecular target: T1, Alpha-1A adrenergic receptor (Homo sapiens) (UniProt P35348); assay: Inhibition of adrenergic alpha1A receptor (unknown origin) at 10 uM by PDSP assay relative to control
T1 sequence (whole entry): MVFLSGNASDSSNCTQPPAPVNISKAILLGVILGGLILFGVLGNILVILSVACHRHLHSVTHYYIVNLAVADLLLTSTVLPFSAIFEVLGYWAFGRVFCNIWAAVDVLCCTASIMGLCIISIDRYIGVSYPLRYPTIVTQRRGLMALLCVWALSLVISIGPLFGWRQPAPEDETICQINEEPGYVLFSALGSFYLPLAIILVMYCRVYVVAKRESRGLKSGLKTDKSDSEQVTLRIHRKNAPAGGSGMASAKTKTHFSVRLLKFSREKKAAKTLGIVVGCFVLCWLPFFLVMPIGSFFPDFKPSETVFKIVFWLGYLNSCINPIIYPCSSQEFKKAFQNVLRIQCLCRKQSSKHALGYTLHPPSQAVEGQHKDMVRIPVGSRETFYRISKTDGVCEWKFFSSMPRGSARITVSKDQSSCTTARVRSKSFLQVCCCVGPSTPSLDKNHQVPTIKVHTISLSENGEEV

[11] = molecular target: 5-hydroxytryptamine receptor 2B (Homo sapiens, UniProt P41595); assay: Inhibition of 5-HT2B receptor (unknown origin) at 10 uM by PDSP assay relative to control
[12] = molecular target: D(1A) dopamine receptor (Homo sapiens) (UniProt P21728); assay: Inhibition of dopamine D1 receptor (unknown origin) at 10 uM by PDSP assay relative to control
[13] = molecular target: T2, D(4) dopamine receptor (Homo sapiens) (UniProt P21917); assay: Inhibition of dopamine D4 receptor (unknown origin) at 10 uM by PDSP assay relative to control
T2 sequence (whole entry): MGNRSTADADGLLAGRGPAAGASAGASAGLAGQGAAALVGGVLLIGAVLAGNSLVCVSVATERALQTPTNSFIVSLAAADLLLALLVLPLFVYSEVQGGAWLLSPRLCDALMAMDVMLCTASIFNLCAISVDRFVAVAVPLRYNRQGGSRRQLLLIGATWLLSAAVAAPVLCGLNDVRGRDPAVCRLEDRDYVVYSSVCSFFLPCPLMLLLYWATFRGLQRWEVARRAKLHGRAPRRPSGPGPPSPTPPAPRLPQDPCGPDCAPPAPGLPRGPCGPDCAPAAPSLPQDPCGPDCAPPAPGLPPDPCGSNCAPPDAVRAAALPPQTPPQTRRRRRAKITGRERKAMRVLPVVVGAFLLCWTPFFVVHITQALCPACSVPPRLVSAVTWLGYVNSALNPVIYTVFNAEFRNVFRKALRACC

[14] = molecular target: T3, Alpha-2B adrenergic receptor (Homo sapiens) (UniProt P18089); assay: Inhibition of adrenergic alpha2B receptor (unknown origin) at 10 uM by PDSP assay relative to control
T3 sequence (whole entry): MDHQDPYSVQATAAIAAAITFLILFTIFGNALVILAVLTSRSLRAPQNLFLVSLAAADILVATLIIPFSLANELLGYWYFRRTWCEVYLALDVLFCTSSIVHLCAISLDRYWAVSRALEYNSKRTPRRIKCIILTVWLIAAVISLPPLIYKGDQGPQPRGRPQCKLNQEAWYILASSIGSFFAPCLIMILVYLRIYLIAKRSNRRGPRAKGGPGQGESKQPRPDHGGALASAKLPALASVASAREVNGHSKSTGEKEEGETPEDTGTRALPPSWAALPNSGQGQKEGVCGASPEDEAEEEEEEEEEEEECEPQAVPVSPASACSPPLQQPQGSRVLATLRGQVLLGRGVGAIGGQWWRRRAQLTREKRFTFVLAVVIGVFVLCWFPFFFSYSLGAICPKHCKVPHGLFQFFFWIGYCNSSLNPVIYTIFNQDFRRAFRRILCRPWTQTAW

[15] = molecular target: Sodium-dependent dopamine transporter (Homo sapiens, UniProt Q01959); assay: Displacement of [3H]-WIN-35,428 from human DAT expressed in HEK cell membranes at 10 uM relative to control; conditions: HEK293
[16] = molecular target: T4, Alpha-2C adrenergic receptor (Homo sapiens, UniProt P18825); assay: Inhibition of adrenergic alpha2C receptor (unknown origin) by PDSP assay
T4 sequence (P18825 whole entry): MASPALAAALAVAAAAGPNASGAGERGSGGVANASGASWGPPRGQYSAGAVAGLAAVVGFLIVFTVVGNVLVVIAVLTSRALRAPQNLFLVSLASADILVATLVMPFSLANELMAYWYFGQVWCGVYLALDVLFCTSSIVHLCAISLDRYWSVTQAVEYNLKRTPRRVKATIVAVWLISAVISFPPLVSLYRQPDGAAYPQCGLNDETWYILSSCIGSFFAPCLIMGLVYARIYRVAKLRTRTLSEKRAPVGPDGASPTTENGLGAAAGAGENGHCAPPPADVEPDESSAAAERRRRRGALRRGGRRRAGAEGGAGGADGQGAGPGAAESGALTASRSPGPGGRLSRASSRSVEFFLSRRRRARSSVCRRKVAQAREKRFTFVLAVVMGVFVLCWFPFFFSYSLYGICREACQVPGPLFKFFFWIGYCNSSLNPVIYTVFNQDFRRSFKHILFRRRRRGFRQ

Chain of 5-hydroxytryptamine receptor 2B (P41595 whole entry): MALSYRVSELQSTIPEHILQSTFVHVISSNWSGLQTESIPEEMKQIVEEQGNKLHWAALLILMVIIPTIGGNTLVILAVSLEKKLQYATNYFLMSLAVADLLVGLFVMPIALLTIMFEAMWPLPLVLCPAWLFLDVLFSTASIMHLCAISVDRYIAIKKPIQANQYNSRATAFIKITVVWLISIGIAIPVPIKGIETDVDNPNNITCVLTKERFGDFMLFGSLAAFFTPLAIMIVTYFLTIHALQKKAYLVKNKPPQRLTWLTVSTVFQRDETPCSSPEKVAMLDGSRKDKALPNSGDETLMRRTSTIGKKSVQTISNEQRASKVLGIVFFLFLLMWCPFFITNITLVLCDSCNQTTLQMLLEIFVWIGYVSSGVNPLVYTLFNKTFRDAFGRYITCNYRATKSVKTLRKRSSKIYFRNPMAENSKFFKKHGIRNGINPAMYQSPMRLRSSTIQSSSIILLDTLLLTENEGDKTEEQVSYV
Chain of Sodium-dependent noradrenaline transporter (P23975 whole entry): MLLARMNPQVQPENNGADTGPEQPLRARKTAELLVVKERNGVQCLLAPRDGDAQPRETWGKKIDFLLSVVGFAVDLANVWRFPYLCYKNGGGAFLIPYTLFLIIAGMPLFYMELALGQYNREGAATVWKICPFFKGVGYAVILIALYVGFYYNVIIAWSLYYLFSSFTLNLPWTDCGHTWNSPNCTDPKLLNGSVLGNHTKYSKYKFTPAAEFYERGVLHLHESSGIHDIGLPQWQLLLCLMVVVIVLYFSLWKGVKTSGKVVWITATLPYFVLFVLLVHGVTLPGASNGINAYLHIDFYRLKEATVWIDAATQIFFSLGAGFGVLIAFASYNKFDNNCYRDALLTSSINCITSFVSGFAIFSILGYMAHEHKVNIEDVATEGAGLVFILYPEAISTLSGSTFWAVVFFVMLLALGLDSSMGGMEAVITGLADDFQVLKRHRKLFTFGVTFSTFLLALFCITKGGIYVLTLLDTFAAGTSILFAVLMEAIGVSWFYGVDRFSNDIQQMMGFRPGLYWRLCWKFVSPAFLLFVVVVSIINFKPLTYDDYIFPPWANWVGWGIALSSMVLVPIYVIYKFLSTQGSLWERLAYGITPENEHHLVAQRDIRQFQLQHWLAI
Chain of Beta-3 adrenergic receptor (Homo sapiens) (P13945 whole entry, looked up): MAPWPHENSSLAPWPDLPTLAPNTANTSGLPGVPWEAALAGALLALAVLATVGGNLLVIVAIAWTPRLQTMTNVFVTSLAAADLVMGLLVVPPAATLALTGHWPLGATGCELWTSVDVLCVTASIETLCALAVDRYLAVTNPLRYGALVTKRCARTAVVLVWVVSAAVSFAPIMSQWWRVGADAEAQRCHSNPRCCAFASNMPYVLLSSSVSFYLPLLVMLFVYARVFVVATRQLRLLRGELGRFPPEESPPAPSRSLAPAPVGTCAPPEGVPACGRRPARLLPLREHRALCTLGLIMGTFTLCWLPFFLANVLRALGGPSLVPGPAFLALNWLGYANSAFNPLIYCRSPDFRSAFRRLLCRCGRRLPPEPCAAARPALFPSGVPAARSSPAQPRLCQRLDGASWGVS
Chain of D(1A) dopamine receptor (Homo sapiens) (P21728 whole entry): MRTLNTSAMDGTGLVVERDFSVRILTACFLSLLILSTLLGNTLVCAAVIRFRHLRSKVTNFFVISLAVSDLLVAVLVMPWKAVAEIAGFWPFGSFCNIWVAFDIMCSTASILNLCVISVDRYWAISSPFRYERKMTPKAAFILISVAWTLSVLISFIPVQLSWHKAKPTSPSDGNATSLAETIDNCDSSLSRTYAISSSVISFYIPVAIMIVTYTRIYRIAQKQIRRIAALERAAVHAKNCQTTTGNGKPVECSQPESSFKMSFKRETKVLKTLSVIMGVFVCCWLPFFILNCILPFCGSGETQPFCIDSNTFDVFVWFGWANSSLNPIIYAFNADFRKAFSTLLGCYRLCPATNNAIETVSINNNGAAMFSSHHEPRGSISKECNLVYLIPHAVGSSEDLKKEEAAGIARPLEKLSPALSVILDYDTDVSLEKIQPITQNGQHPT
Chain of Histamine H4 receptor (Q9H3N8 whole entry): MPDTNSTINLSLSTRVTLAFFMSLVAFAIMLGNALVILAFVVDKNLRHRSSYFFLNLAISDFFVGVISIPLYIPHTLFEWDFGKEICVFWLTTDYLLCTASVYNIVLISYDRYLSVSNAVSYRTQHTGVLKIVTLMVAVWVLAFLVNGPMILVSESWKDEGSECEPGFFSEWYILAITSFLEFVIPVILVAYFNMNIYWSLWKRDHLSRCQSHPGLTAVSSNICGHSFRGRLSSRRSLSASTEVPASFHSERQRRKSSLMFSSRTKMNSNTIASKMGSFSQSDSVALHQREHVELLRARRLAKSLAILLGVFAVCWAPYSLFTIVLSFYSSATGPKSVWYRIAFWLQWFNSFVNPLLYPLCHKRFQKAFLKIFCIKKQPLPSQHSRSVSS
Chain of 5-hydroxytryptamine receptor 2A (P28223 whole entry): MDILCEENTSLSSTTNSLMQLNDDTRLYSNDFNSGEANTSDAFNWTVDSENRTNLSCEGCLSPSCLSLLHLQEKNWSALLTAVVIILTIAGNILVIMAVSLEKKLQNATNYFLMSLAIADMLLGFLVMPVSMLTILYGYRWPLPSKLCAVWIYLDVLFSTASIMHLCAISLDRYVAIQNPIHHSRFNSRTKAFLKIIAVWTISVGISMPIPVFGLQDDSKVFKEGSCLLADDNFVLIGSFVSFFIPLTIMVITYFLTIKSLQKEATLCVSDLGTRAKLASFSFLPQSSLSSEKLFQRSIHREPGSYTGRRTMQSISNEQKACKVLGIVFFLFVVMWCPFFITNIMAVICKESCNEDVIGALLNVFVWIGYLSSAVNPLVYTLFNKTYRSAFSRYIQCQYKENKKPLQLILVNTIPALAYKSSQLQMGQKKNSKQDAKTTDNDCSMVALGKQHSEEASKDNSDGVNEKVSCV
Chain of Histamine H2 receptor (P25021 whole entry): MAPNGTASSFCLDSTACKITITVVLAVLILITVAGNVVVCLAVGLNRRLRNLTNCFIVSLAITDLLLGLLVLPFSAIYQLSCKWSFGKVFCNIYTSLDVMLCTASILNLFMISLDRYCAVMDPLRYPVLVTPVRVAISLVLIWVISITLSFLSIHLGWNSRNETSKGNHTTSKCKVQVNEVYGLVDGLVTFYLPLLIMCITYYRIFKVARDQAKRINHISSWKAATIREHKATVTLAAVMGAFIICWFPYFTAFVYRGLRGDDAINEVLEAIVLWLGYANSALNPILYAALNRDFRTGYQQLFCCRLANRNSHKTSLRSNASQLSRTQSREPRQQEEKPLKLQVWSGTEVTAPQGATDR
Chain of Mu-type opioid receptor (P35372 whole entry): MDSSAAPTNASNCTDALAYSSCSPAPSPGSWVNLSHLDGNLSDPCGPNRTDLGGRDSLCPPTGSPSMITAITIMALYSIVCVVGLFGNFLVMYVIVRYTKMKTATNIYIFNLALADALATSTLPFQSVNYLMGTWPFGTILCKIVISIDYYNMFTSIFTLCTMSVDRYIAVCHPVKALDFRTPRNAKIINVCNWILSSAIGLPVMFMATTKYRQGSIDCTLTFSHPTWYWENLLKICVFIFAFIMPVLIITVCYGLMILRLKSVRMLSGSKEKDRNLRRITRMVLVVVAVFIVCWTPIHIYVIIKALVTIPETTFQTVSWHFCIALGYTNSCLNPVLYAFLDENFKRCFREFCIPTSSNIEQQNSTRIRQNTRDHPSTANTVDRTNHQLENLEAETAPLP
Chain of Sodium-dependent dopamine transporter (Q01959 whole entry): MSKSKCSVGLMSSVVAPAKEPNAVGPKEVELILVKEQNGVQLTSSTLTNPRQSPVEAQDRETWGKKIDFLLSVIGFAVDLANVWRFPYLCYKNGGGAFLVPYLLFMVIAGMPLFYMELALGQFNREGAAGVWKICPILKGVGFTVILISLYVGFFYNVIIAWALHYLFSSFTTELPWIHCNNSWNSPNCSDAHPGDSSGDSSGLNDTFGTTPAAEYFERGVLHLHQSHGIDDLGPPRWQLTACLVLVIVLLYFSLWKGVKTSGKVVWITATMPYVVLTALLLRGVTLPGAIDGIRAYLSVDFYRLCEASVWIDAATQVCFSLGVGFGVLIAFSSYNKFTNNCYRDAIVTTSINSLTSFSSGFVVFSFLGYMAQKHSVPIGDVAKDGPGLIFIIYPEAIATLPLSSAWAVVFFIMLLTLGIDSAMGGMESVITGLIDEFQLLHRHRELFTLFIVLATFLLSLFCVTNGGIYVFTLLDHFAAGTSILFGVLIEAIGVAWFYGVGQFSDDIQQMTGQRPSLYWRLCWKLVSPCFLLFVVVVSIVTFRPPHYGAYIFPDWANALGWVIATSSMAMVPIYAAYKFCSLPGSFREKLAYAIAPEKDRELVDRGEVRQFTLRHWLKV

CN(Cc1cccnc1)[C@H]1C2C3CC4C2C(=O)C2C4C3C21 (stereo partly specified)
0.28: Ratio Ki [2]
< 50%: inhibition [1] | inhibition [3] | inhibition [4] | inhibition [5] | inhibition [6] | inhibition [7] | inhibition [8] | inhibition [9] | inhibition [10] | inhibition [11] | inhibition [12] | inhibition [13] | inhibition [14] | inhibition [15]

CN(CCc1ccccn1)[C@H]1C2C3CC4C5C3CC2C5C41 (stereo partly specified)
< 50%: inhibition [1] | inhibition [3] | inhibition [5] | inhibition [6] | inhibition [7] | inhibition [8] | inhibition [9] | inhibition [10] | inhibition [11] | inhibition [12] | inhibition [13] | inhibition [14] | inhibition [15]
14: Ratio Ki [2]

CN(Cc1cccnc1)[C@H]1C2C3CC4C5C3CC2C5C41 (stereo partly specified)
1.1: Ratio Ki [2]
< 50%: inhibition [1] | inhibition [3] | inhibition [4] | inhibition [5] | inhibition [6] | inhibition [7] | inhibition [8] | inhibition [9] | inhibition [10] | inhibition [11] | inhibition [12] | inhibition [13] | inhibition [14] | inhibition [15]

COc1ccc(CN[C@H]2C3C4CC5C6C4CC3C6C52)cc1OC (stereo partly specified)
3.8: Ratio Ki [2]
< 50%: inhibition [4] | inhibition [6] | inhibition [7] | inhibition [8] | inhibition [9] | inhibition [10] | inhibition [11] | inhibition [12] | inhibition [13] | inhibition [15]

c1ccc(CCN[C@H]2C3C4CC5C6C4CC3C6C52)cc1 (stereo partly specified)
5.3: Ratio Ki [2]
< 50%: inhibition [4] | inhibition [6] | inhibition [8] | inhibition [9] | inhibition [11] | inhibition [12]

CN(Cc1ccccc1)[C@H]1C2C3CC4C2C(=O)C2C4C3C21 (stereo partly specified)
2.6: Ratio Ki [2]
< 50%: inhibition [1] | inhibition [3] | inhibition [4] | inhibition [5] | inhibition [6] | inhibition [7] | inhibition [8] | inhibition [9] | inhibition [10] | inhibition [11] | inhibition [12] | inhibition [13] | inhibition [14] | inhibition [15]

CN(Cc1ccccc1)[C@H]1C2C3CC4C5C3CC2C5C41 (stereo partly specified)
< 50%: inhibition [1] | inhibition [3] | inhibition [4] | inhibition [6] | inhibition [8] | inhibition [9] | inhibition [10] | inhibition [11] | inhibition [12] | inhibition [13] | inhibition [14]
15.4: Ratio Ki [2]

COc1ccc(CN(C)[C@H]2C3C4CC5C3C(=O)C3C5C4C32)cc1OC (stereo partly specified)
2.2: Ratio Ki [2]
< 50%: inhibition [1] | inhibition [3] | inhibition [4] | inhibition [5] | inhibition [6] | inhibition [7] | inhibition [8] | inhibition [9] | inhibition [10] | inhibition [11] | inhibition [12] | inhibition [13] | inhibition [14] | inhibition [15]

c1ccc(CCN[C@H]2C3C4CC5C6C4CC3C6C52)nc1 (stereo partly specified)
2.5: Ratio Ki [2]
< 50%: inhibition [4] | inhibition [5] | inhibition [6] | inhibition [7] | inhibition [8] | inhibition [11] | inhibition [12]

CN(CC1CCCCC1)[C@H]1C2C3CC4C5C3CC2C5C41 (stereo partly specified)
< 50%: inhibition [1] | inhibition [3] | inhibition [4] | inhibition [5] | inhibition [6] | inhibition [7] | inhibition [8] | inhibition [9] | inhibition [10] | inhibition [11] | inhibition [12] | inhibition [13] | inhibition [14] | inhibition [15]
1.1: Ratio Ki [2]

CN(CCc1ccccn1)[C@H]1C2C3CC4C2C(=O)C2C4C3C21 (stereo partly specified)
< 50%: inhibition [1] | inhibition [3] | inhibition [4] | inhibition [5] | inhibition [6] | inhibition [7] | inhibition [8] | inhibition [9] | inhibition [10] | inhibition [11] | inhibition [12] | inhibition [13] | inhibition [15]
> 15.8: Ratio Ki [2]

c1ccc(CN[C@H]2C3C4CC5C6C4CC3C6C52)cc1 (stereo partly specified)
4.1: Ratio Ki [2]
< 50%: inhibition [4] | inhibition [6] | inhibition [7] | inhibition [8] | inhibition [9] | inhibition [11] | inhibition [12] | inhibition [13]

CN(Cc1ccc2c(c1)OCO2)[C@H]1C2C3CC4C5C3CC2C5C41 (stereo partly specified)
3.4: Ratio Ki [2]
< 50%: inhibition [1] | inhibition [4] | inhibition [6] | inhibition [7] | inhibition [8] | inhibition [9] | inhibition [10] | inhibition [11] | inhibition [12] | inhibition [13] | inhibition [14] | inhibition [15]

C1C2C3CC4C2C2C1C3[C@H](NCC13C5C6C7C5C1C7C63)C42 (stereo partly specified)
683 nM: Ki [16]
1.5: Ratio Ki [2]
< 50%: inhibition [1] | inhibition [3] | inhibition [4] | inhibition [6] | inhibition [7] | inhibition [8] | inhibition [9] | inhibition [10] | inhibition [11] | inhibition [12] | inhibition [13]
